From ChEMBL document CHEMBL4811281, “Identification of aryl sulfonamides as novel and potent inhibitors of NaV1.5” (Bioorg Med Chem Lett, 2021) come the findings set out here.

The source made the active and inactive calls. The calls are words filed in the database; no cut-off is given here. Some results are limits rather than exact numbers.

Series [1] concerns the target Sodium channel protein type 5 subunit alpha (Homo sapiens, UniProt Q14524). The experiment in a line: Inhibition of human Nav1.5 by automated voltage clamp electrophysiology.
A short description of series [2]: Intrinsic clearance in human liver microsomes. It is filed as ADME, Microsome. Particulars: read-out: CLH. (Liver microsomes are a subcellular fraction often used to study metabolism.)
Series [3] can be described thus: Intrinsic clearance in mouse liver microsomes. It is filed as ADME, Microsome. The following applies: read-out: CLH.
The nature of series [4]: Inhibition of human Nav1.5 VSD4 R1631A mutant by automated voltage clamp electrophysiology.
A short description of series [5]: Inhibition of human Nav1.5 VSD4 R1622A mutant by automated voltage clamp electrophysiology.
Series [6] can be described thus: Inhibition of human Nav1.5 VSD4 R1625A mutant by automated voltage clamp electrophysiology.
Series [7] in a line: Inhibition of human Nav1.5 VSD4 R1628A mutant by automated voltage clamp electrophysiology.
Series [8] can be described thus: Inhibition of human Nav1.5 VSD4 R1634A mutant by automated voltage clamp electrophysiology.
The target of series [9] is Sodium channel protein type 5 subunit alpha (Homo sapiens, UniProt Q14524, R814A). The experiment in a line: Inhibition of human Nav1.5 VSD2 R814A mutant by automated voltage clamp electrophysiology.
Series [10] is filed under the species Homo sapiens. The experiment in a line: Selectivity ratio of IC50 for inhibition of human Nav1.5 VSD4 F1759A mutant to IC50 for inhibition of human Nav1.5 by automated voltage clamp electrophysiology.
The target in series [11] is Potassium voltage-gated channel subfamily B member 1 (Homo sapiens) (UniProt Q14721). Briefly: Inhibition of Kv2.1 (unknown origin) by voltage clamp method.
Series [12] concerns the target Potassium voltage-gated channel subfamily A member 5 (Homo sapiens) (UniProt P22460). Briefly: Inhibition of Kv1.5 (unknown origin) by voltage clamp method.
Series [13] concerns the target Voltage-gated potassium channel KCNC2 (Homo sapiens) (UniProt Q96PR1). The experiment in a line: Inhibition of Kv3.2 (unknown origin) by voltage clamp method.
The target in series [14] is Potassium/sodium hyperpolarization-activated cyclic nucleotide-gated channel 2 (Homo sapiens) (UniProt Q9UL51). The experiment in a line: Inhibition of HCN2 (unknown origin) by voltage clamp method.
Series [15] addresses Potassium/sodium hyperpolarization-activated cyclic nucleotide-gated channel 4 (Homo sapiens) (UniProt Q9Y3Q4). Briefly: Inhibition of HCN4 (unknown origin) by voltage clamp method.
Series [16] is filed under the species Homo sapiens. Briefly: Inhibition of Kv4.2/KChIP2.2 (unknown origin) by voltage clamp method.
The target of series [17] is Voltage-dependent N-type calcium channel subunit alpha-1B (Homo sapiens) (UniProt Q00975). The experiment in a line: Inhibition of Cav2.2 (unknown origin) by voltage clamp assay.
For series [18], the target named is Voltage-dependent T-type calcium channel subunit alpha-1G (Homo sapiens) (UniProt O43497). Briefly: Inhibition of Cav3.1 (unknown origin) by voltage clamp assay.
Voltage-dependent T-type calcium channel subunit alpha-1G (Homo sapiens), sequence (O43497 whole entry): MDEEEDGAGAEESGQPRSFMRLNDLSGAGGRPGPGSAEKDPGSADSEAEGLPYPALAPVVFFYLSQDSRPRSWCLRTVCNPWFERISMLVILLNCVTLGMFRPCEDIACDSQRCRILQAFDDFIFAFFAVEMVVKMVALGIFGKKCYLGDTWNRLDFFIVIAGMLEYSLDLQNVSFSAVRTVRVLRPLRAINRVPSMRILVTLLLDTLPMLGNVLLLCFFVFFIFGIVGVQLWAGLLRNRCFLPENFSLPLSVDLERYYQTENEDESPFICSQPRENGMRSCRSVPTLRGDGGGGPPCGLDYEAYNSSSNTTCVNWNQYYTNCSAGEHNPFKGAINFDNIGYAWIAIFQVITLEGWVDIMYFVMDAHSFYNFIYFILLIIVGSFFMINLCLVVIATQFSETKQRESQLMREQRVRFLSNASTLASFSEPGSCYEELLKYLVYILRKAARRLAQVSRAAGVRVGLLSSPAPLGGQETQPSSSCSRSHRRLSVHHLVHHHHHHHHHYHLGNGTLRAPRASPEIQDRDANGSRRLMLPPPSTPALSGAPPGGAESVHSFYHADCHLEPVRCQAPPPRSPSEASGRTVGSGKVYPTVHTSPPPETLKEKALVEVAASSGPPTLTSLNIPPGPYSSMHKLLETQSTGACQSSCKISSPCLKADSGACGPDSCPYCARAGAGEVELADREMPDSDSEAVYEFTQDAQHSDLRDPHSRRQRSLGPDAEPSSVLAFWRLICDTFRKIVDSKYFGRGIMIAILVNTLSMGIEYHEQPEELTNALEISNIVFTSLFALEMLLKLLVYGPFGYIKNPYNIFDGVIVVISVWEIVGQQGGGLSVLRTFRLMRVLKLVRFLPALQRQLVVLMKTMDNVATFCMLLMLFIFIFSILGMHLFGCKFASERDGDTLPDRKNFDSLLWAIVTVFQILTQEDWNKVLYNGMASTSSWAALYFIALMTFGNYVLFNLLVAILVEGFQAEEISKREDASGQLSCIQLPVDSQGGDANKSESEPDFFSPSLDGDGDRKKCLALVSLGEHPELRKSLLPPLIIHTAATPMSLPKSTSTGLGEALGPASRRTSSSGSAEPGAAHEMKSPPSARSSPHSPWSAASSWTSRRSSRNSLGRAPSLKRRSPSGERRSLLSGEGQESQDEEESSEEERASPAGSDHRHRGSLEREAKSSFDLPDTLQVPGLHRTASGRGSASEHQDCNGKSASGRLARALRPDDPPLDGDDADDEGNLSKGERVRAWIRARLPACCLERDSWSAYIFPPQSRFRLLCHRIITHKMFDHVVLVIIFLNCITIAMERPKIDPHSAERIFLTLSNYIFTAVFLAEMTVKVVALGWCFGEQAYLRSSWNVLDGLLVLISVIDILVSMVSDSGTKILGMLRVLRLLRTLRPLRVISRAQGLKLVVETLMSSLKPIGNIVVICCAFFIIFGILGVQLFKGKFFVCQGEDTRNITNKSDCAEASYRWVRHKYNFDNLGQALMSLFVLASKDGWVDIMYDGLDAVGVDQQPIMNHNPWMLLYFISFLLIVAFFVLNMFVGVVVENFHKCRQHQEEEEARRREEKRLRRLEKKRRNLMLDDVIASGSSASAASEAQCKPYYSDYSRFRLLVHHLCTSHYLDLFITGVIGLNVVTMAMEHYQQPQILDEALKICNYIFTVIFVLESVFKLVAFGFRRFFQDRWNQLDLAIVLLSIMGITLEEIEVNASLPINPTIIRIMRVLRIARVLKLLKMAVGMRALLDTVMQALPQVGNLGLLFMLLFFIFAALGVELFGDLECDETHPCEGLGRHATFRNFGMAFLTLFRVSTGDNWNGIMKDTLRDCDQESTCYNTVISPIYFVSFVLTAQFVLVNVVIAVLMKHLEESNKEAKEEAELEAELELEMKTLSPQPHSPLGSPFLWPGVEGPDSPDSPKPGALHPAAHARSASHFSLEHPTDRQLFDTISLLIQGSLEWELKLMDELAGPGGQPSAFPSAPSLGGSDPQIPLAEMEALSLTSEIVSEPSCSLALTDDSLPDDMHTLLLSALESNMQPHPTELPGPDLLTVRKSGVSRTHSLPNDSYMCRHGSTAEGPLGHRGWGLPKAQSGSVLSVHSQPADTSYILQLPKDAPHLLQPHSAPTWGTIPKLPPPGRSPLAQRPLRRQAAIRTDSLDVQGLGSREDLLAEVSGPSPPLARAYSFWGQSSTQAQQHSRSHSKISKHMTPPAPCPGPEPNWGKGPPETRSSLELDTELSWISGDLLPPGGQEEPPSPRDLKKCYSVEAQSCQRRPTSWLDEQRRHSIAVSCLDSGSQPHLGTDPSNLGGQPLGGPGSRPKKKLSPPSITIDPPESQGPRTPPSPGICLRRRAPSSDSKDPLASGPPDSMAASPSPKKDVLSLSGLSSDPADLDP
In series [19] the target is Voltage-dependent T-type calcium channel subunit alpha-1I (Homo sapiens) (UniProt Q9P0X4). Briefly: Inhibition of Cav3.3 (unknown origin) by voltage clamp assay.
For series [20], the species on record is Homo sapiens. The experiment in a line: Inhibition of GABA channel (unknown origin) by voltage clamp assay.
Series [21] concerns the target Transient receptor potential cation channel subfamily V member 1 (Homo sapiens) (UniProt Q8NER1). Briefly: Inhibition of TRPV1 (unknown origin) by voltage clamp assay.
For series [22], the target named is 5-hydroxytryptamine receptor 3A (Homo sapiens) (UniProt P46098). The experiment in a line: Inhibition of 5HT3A channel (unknown origin) by voltage clamp assay.
The species entered for series [23] is Homo sapiens. Briefly: Selectivity ratio of IC50 for inhibition of human Nav1.5 expressed in HEK293 cells assessed as inhibition of peak current to IC50 for inhibition of human Nav1.5 expressed in HEK293 cells assessed as inhibition of late current. The class given is cell-based.
For series [24], the system named is iPSC-CM. Briefly: Anti-arrythmic activity in human iPSC-derived cardiomyocytes assessed as AP amplitude at 100 nM in presence of 15 to 30 nM ATX-II by current clamp analysis. It is filed as functional, cell-based.
Series [25] is filed under the species Homo sapiens. Briefly: Selectivity ratio of IC50 for human Nav1.1 to IC50 for human Nav1.5.
For series [26], the species on record is Homo sapiens. Briefly: Selectivity ratio of IC50 for human Nav1.2 to IC50 for human Nav1.5.
For series [27], the species on record is Homo sapiens. Briefly: Selectivity ratio of IC50 for human Nav1.6 to IC50 for human Nav1.5.
The test system of series [28] is iPSC-CM. Briefly: Anti-arrythmic activity in human iPSC-derived cardiomyocytes assessed as maximum diastolic membrane potential at 100 nM in presence of 15 to 30 nM ATX-II by current clamp analysis. It is filed as functional, cell-based.

Sodium channel protein type 5 subunit alpha (Homo sapiens, UniProt Q14524), sequence (Q14524 whole entry): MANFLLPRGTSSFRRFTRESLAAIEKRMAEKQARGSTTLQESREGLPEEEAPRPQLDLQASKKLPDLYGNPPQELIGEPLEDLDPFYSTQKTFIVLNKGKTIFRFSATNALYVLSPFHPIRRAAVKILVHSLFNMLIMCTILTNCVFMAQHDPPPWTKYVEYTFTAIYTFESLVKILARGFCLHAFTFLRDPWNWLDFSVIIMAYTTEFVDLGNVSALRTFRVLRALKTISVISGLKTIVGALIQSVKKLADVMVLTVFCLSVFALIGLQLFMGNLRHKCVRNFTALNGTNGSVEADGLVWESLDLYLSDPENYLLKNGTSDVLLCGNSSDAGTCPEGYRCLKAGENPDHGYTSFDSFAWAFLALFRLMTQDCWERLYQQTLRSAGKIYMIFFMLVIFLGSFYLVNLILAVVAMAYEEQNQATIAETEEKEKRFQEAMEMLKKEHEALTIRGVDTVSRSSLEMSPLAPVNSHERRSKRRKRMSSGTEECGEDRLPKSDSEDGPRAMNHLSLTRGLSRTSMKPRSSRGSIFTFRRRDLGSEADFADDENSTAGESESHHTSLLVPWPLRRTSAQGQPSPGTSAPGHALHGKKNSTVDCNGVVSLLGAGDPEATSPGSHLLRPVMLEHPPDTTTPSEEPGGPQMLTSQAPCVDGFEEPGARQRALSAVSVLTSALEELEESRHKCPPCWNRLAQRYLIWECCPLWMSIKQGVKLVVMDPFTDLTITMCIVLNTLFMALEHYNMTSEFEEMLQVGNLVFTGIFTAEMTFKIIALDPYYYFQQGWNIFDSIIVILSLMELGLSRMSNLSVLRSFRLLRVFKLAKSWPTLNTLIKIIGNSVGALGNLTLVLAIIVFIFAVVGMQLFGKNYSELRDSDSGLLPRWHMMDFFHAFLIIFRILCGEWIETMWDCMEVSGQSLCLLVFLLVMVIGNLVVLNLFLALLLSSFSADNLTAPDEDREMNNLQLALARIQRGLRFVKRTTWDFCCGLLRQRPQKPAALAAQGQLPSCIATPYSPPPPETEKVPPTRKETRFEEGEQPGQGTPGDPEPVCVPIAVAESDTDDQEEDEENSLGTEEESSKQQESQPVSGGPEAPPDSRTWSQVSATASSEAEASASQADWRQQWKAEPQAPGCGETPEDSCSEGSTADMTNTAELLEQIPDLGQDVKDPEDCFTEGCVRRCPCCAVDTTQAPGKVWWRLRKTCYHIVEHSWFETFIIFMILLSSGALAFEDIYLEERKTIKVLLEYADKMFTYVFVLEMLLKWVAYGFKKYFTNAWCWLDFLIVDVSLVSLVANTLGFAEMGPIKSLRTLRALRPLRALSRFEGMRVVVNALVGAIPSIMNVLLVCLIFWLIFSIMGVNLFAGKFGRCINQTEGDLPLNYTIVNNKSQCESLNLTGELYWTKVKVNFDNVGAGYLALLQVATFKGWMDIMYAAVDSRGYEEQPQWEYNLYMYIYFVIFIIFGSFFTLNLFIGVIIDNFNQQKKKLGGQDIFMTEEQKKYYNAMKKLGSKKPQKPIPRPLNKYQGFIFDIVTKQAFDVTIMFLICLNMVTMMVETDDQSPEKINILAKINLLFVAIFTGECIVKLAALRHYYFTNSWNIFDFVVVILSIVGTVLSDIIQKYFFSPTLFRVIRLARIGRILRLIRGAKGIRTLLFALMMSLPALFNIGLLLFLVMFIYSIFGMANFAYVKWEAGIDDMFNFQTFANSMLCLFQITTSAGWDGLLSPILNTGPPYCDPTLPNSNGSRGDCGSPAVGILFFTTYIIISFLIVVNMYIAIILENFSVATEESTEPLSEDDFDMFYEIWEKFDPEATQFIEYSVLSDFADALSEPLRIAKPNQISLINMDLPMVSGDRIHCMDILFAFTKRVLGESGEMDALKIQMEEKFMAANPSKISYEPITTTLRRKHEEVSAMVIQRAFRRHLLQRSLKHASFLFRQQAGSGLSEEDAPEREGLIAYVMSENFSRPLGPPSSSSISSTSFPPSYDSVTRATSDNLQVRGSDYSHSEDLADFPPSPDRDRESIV
Potassium voltage-gated channel subfamily A member 5 (Homo sapiens), sequence (P22460 whole entry): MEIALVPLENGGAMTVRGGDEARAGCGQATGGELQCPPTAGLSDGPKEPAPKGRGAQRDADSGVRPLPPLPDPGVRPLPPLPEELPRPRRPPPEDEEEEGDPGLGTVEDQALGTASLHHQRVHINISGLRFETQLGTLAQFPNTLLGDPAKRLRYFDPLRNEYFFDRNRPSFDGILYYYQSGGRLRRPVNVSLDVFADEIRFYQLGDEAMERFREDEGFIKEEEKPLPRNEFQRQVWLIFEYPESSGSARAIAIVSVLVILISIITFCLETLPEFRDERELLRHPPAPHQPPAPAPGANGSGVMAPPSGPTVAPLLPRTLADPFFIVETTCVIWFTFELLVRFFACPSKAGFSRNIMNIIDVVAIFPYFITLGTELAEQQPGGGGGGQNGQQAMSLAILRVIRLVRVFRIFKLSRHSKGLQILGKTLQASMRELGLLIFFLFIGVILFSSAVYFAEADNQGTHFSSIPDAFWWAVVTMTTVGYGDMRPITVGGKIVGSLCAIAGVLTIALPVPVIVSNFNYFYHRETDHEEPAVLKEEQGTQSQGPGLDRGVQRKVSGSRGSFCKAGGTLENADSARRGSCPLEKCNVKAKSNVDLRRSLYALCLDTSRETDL

Usually IC50 stands for the concentration needed to halve the response being measured. Low values mean higher potency, high ones lower potency. Turning to `O=S(=O)(Nc1ncc(F)s1)c1cc(F)c(O[C@H]2CCN(CC(F)(F)F)C[C@@H]2c2ccccc2)cc1F` (racemic), in [1], the IC50 turned out to be 4650 nM. This counts as single-digit micromolar.

On to `O=S(=O)(Nc1nncs1)c1cc(F)c(O[C@H]2CCN(CC(F)(F)F)C[C@@H]2c2ccccc2)cc1F` (racemic), for which the IC50 in series [1] was 25100 nM.

In series [1], `O=S(=O)(Nc1cccc(F)n1)c1cnc(O[C@H]2CCN(CC(F)(F)F)C[C@@H]2c2ccc(F)c(F)c2)c(F)c1` (racemic) registered an IC50 of 1550 nM. The figures for the CLint scaled in series [2] and in [3] were 8.4 mL/min/kg and 63 mL/min/kg, respectively.

In turn, `O=S(=O)(Nc1ccccn1)c1cc(F)c(O[C@H]2CCN(CC(F)(F)F)C[C@@H]2c2ccccc2)cc1F` (racemic) displayed a concentration for half-maximal inhibition (IC50) in series [1] of 4320 nM. This counts as single-digit micromolar.

In series [1], `O=S(=O)(Nc1cccc(F)n1)c1cc(F)c(O[C@H]2CCN(CC(F)(F)F)C[C@@H]2c2cccc(F)c2)cc1F` (racemic) showed an IC50 of 460 nM. Also, the CLint scaled in [2] was determined as 13 mL/min/kg; in [3], 53 mL/min/kg.

As to `O=S(=O)(Nc1cccc(F)n1)c1cc(F)c(O[C@H]2CCN(CC(F)(F)F)C[C@@H]2c2ccc(F)c(F)c2)c(F)c1` (racemic), 65 nM corresponded to half-maximal inhibition in series [1] (IC50). The CLint scaled in series [2] came out at 15 mL/min/kg; in series [3], 65 mL/min/kg.

On to `O=S(=O)(Nc1cccc(C(F)(F)F)n1)c1cc(F)c(O[C@H]2CCN(CC(F)(F)F)C[C@@H]2c2ccccc2)cc1F` (racemic), for which the concentration for half-maximal inhibition (IC50) in series [1] turned out to be 6330 nM. This lies in the single-digit micromolar range.

In [1], `O=S(=O)(Nc1ccc(F)cn1)c1cc(F)c(O[C@H]2CCN(CC(F)(F)F)C[C@@H]2c2ccccc2)cc1F` (racemic) displayed a 50% inhibitory concentration (IC50) of 13200 nM.

Turning to `O=S(=O)(Nc1cccc(F)n1)c1cc(F)c(O[C@H]2CCN(CC(F)(F)F)C[C@@H]2c2ccccc2)cc1F` (racemic), the IC50 amounted to 700 nM in series [1]; 570 nM in series [4]; 1290 nM in series [5]; 810 nM in series [6]; 820 nM in series [7]; 1210 nM in series [8]. The half-inhibitory concentration (IC50) in series [9] came out at 410 nM. The CLint scaled was determined as 16 mL/min/kg in [2] and 70 mL/min/kg in series [3].

In series [1], `O=S(=O)(Nc1cccc(F)n1)c1cc(F)c(O[C@H]2CCN(CC(F)(F)F)C[C@@H]2c2ccc(F)cc2F)cc1F` (racemic) came in with an IC50 of 470 nM. Further, the CLint scaled in series [2] was found to be 13 mL/min/kg; in series [3], 49 mL/min/kg.

With `N#Cc1cccc([C@H]2CN(CC(F)(F)F)CC[C@@H]2Oc2cc(F)c(S(=O)(=O)Nc3cccc(F)n3)cc2F)c1` (racemic), it took 4580 nM to reach half-maximal inhibition in [1] (IC50).

`O=S(=O)(Nc1cccnn1)c1cc(F)c(O[C@H]2CCN(CC(F)(F)F)C[C@@H]2c2ccccc2)cc1F` (racemic): in series [1], the concentration for half-maximal inhibition (IC50) worked out at 25500 nM. This IC50 lies about 5.6-fold higher than the previous one.

Consider `O=S(=O)(Nc1cccc(F)n1)c1cc(F)c(O[C@H]2CCN(CC(F)(F)F)C[C@@H]2c2ccc(F)c(F)c2)cc1F` (racemic), for which, in series [1], inhibition was half-maximal at 260 nM (IC50). The CLint scaled in series [2] was 7.5 mL/min/kg; in series [3], 49 mL/min/kg.

Regarding `O=S(=O)(Nc1ncccc1F)c1cc(F)c(O[C@H]2CCN(CC(F)(F)F)C[C@@H]2c2ccccc2)cc1F` (racemic), the half-inhibitory concentration (IC50) in [1] was 5040 nM.

In turn, `O=S(=O)(Nc1cccc(F)n1)c1cc(F)c(O[C@H]2CCN(CC(F)(F)F)C[C@@H]2c2ccc(F)c(F)c2)c(F)c1F` (racemic) came in with an IC50 in series [1] of 31 nM. The CLint scaled in series [2] worked out at 14 mL/min/kg; in series [3] it was 65 mL/min/kg.

As for `CS(=O)(=O)c1cccc([C@H]2CN(CC(F)(F)F)CC[C@@H]2Oc2cc(F)c(S(=O)(=O)Nc3cccc(F)n3)cc2F)c1` (racemic), the 50% inhibitory concentration (IC50) in [1] was > 30000 nM.

Molecule `O=S(=O)(Nc1cccc(F)n1)c1cc(F)c(O[C@H]2CCN(CC(F)(F)F)C[C@@H]2c2ccc(F)cc2)cc1F` (racemic) yielded a half-maximal inhibitory concentration (IC50) in series [1] of 610 nM. Besides, the CLint scaled amounted to 11 mL/min/kg in series [2] and 62 mL/min/kg in series [3].

In turn, `O=S(=O)(Nc1ncns1)c1cc(F)c(O[C@H]2CCN(CC(F)(F)F)C[C@@H]2c2ccccc2)cc1F` (racemic) returned an IC50 in [1] of 7830 nM.

For `O=S(=O)(Nc1cscn1)c1cc(F)c(O[C@H]2CCN(CC(F)(F)F)C[C@@H]2c2ccccc2)cc1F` (racemic), the IC50 amounted to 1180 nM in series [1] and 1170 nM in series [4].

In turn, `O=S(=O)(Nc1cccc(Cl)n1)c1cc(F)c(O[C@H]2CCN(CC(F)(F)F)C[C@@H]2c2ccccc2)cc1F` (racemic) yielded a concentration for half-maximal inhibition (IC50) in [1] of 1100 nM.

The molecule `O=S(=O)(Nc1cc(F)ccn1)c1cc(F)c(O[C@H]2CCN(CC(F)(F)F)C[C@@H]2c2ccccc2)cc1F` (racemic) came in with a half-inhibitory concentration (IC50) in series [1] of 1290 nM.

For `O=S(=O)(Nc1cscn1)c1cc(F)c(O[C@H]2CCN(CC(F)(F)F)C[C@@H]2c2ccc(F)c(F)c2)cc1F` (racemic), the half-inhibitory concentration (IC50) in series [1] came to 750 nM. The CLint scaled in series [2] was determined as 14 mL/min/kg; in [3] it was 70 mL/min/kg.

Turning to `O=S(=O)(Nc1ccncn1)c1cc(F)c(O[C@H]2CCN(CC(F)(F)F)C[C@@H]2c2ccccc2)cc1F` (racemic), the half-inhibitory concentration (IC50) in series [1] was > 30000 nM.

In turn, `O=S(=O)(Nc1cccc(F)n1)c1cc(F)c(O[C@H]2CCN(CC(F)(F)F)C[C@@H]2c2ccccc2F)cc1F` (racemic) displayed an IC50 in series [1] of 680 nM. For the same molecule, the CLint scaled in series [2] was determined as 17 mL/min/kg; in [3], 71 mL/min/kg.

For `O=S(=O)(Nc1ncccn1)c1cc(F)c(O[C@H]2CCN(CC(F)(F)F)C[C@@H]2c2ccccc2)cc1F` (racemic), in series [1], the half-maximal inhibitory concentration (IC50) is 7140 nM.

Turning to `O=S(=O)(Nc1cccc(F)n1)c1cc(F)c(OC2CCN(CC(F)(F)F)CC2c2ccc(F)c(F)c2)cc1F` (single isomer, unassigned; (+)), 430 nM corresponded to half-maximal inhibition in [1] (IC50).

As for `O=S(=O)(Nc1cccc(F)n1)c1cc(F)c(OC2CCN(CC(F)(F)F)CC2c2ccc(F)c(F)c2)cc1F` (single isomer, unassigned; (-)), the Ratio IC50 in the series filed under Homo sapiens [10] is > 40.

`O=S(=O)(Nc1cccc(F)n1)c1cc(F)c(O[C@H]2CCN(CC(F)(F)F)C[C@@H]2c2ccc(F)c(F)c2)c(F)c1` (stereo in doubt; (+)-6): the IC50 in [1] was determined as 170 nM.

`O=S(=O)(Nc1cccc(F)n1)c1cc(F)c(O[C@H]2CCN(CC(F)(F)F)C[C@@H]2c2ccc(F)c(F)c2)c(F)c1` (stereo in doubt; (-)-6): the inhibition result (in series [11]; in series [12]; in series [13]; in series [14]; in [15]; in the series filed under Homo sapiens [16]) was “inactive” throughout. Moreover, the inhibition result (in [17]; in series [18]; in series [19]; in the series filed under Homo sapiens [20]; in [21]; in [22]) was “inactive” each time. Further, the Ratio IC50 in the series filed under Homo sapiens [23] stood at 1.1; in the series filed under Homo sapiens [25] it was 16; in the series filed under Homo sapiens [26], 7; in the series listed under Homo sapiens [27], 6. Further, the result in the series on iPSC-CM [24] and in the series on iPSC-CM [28] was inactive.
